# Data from patent US12486214B2, “Rosmarinic acid derivative, Rosmarinic acid-derived particles, composition containing same for treating inflammatory disease” (KOREA ADVANCED INSTITUTE OF SCIENCE AND TECHNOLOGY, priority 2020, dated 2025).
# Where two headings read alike, the source gives them in different places.
# How the values were obtained:
# [1] = tested on: inflammatory bowel disease model mice; assay: Effect of oral HA-RANPs (and HA, RA, 5-ASA) on inflammatory bowel disease model mice (3% DSS); type: in vivo; settings: 5 times: HA-RANPs 100 mg/kg, HA 85 mg/kg, RA 15 mg/kg, 5-ASA 100 mg/kg
# Method: To investigate the antiinflammatory therapeutic efficacy of HA-RANPs in inflammatory bowel disease model mice, the present inventors performed the following tests. By using the inflammatory bowel disease model in which 3% DSS and drinking water were administered to mice (C57BL/6, 6 weeks old, female, 7-day acclimatization) for 5 days, three dose concentrations (20, 50, and 100 mg/kg) of HA-RANPs were orally administered for 5 days (D+1 to D+5, one time/day) for a total of 5 times. The degree of disease progression and the antiinflammatory effect of HA-RANPs were examined through weight changes (measured daily) of all groups of mice and the extraction and tests of the large intestine on the last day.
# In addition, the myeloperoxidase (MPO) activity and inflammatory cytokine expression were examined through ELISA assay. Specifically, the same portion of each mouse colon sample was cut, pre-treated, and minced, and then a predetermined amount thereof was centrifuged to obtain a supernatant, and thereafter, the supernatant was subjected to the following assay. The MPO activity is an index to evaluate the infiltration of neutrophils into the inflamed tissue. The measurement of MPO activity is disclosed in Grisham et al. (1990) or the like.
# The change in extent of inflammation in the colon was investigated by histopathological examination, that is, examining the degrees of structural integrity loss, crypt destruction, and mucosal surface changes.
# The present inventors evaluated the effect of the HA-RANPs of the present disclosure on inflammatory bowel disease model mice through the comparison with HA and RA. The inflammatory bowel disease model was induced by the same method as in the above-described experiment, wherein 100 mg/kg of HA-RANPs as a drug and the equal amounts of Free HA (85 mg/kg), RA (15 mg/kg), and 5-amino salicylic acid (5-ASA) (100 mg/kg) as positive drug controls were administered orally (a total of 5 times, one time/day, D+1 to D+5).
# [2] = Particle size, zeta potential and morphology (DLS/PCS, TEM); type: physicochemical
# Method: PEG-RA (20 mg) was dissolved in 4 mL of a 1:3 mixture (v/v) of chloroform:methanol and mixed for several minutes. The organic solvent was then removed by rotary vacuum evaporation and was further dried under a nitrogen flow for 30 minutes to yield a film layer. The film layer was suspended in 1 mL of PBS (137 mM NaCl, 2.7 mM KCl, 10 mM Na2HPO4, 2 mM KH2PO4, pH 7.4) and the resulting micelle suspension was sonicated in a bath sonicator (50 W, 40 kHz) for 10 minutes to yield uniform-sized RANPs. The micelle solution was maintained at 4° C., and directly used in the experiments below. The particle size of RANPs was analyzed by photon correlation spectroscopy (PCS) using a Nanosizer ZS90 (Malvern Instrument Ltd., Malvern, UK) equipped with 4.0 mW HeNe laser and an avalanche photodiode detector operating at 633 nm. Zeta potential was also measured at 25° C. in aqueous solutions (pH 7) by using the same equipment. The morphological characteristics of RANPs were examined using negative-staining transmission electron microscopy (TEM). Briefly, a drop of the diluted sample was placed on copper grids coated with a carbon film, stained with 0.5% w/v uranyl acetate solution, and dried at room temperature. The grids were imaged using a Tecnai F20 (FEI Co., Hillsboro, OR, USA) transmission electron microscope. […]
# The hydrodynamic size and zeta potential of RANPs in phosphate buffer solution (pH 7.4), measured by dynamic light scattering (DLS), were 67.5±3.5 nm and −33.70 mV, respectively, indicating the exposure of the PEG layer on the surface of nanoparticles (FIG. 1C and Table 1).
# The product was then analyzed through UV-Vis spectrometry using Beckman Coulter DU-800 UV-Vis spectrometer. The particle size of the HA-RA nanoparticles was obtained by measuring the hydrodynamic size of HA-RA nanoparticles in phosphate buffer solution (pH 7.4), measured by dynamic light scattering (DLS). […]
# The LMWC-RA of the present disclosure was prepared into nanoparticles by the method shown in Example 8, and then the hydrodynamic size and zeta potential value thereof were measured.
# [3] = Solubility in distilled water or DMSO; type: physicochemical
# [4] = in vivo; cited from earlier work
# [5] = free RA, rats, intravenous 0.625 mg/kg; cited from earlier work
Conductivity [2] [mS/cm],Mobility [2] [μm cm/Vs],Zeta potential [2] [mV],"solubility ([3]; DMSO, organic solvent or mixture, read-out: solubility in DMSO) [mg/mL]",dissolution in distilled water ([3]; at 5 mg/ml),"solubility ([3]; distilled water, water, read-out: solubility in distilled water) [mg/mL]",SMILES,MPO activity and pro-inflammatory cytokine levels [1],body weight loss and colon length shortening on day 10 [1],colon histopathology (H&E stained biopsy) [1],"expression of tight junction-related genes ZO-1, claudin-1, and occludin in colon [1]",time within which RA is usually excreted from the body [4] [min],area under the curve (AUC) [5] [ng·h/mL],circulation (or elimination) half-life (t1/2) [5] [min],mean residence time (MRT) [5] [min]
–,–,–,–,–,–,"Nc1ccc(O)c(C(=O)O)c1 [5-ASA, 5-amino salicylic acid]",somewhat relieved,significantly low,slightly relieved,improved,–,–,–,–
24.10,−1.217,−15.53,≤ 25,only partially dissolved,≤ 0.041,"O=C(/C=C/c1ccc(O)c(O)c1)O[C@H](Cc1ccc(O)c(O)c1)C(=O)O [Rosmarinic acid (RA), rosmarinic acid]",somewhat relieved,slight efficacy,slightly relieved,improved,≤ 30,4090,42.9,50.1
